For one experiment, the system named is DLD-1 BRCA2(−/−) cells. The experiment in a line: Cell growth inhibition assay (CellTiter-Glo cell viability, 7 days). Format: cell-based. The conditions noted are these: Homo sapiens, 168 h. From the text: (§1) The objective of this study is to evaluate the effect of invention compounds on cell proliferation through the cell viability assay in DLD-1 BRCA2(−/−) and parental isogenic pair and MDA-MB-436 (mutated BRCA1) cell lines. The CellTiter-Glo (CTG) based cell viability assay is designed to determine the number of viable cells in the culture because of compound effect, by quantifying ATP, which indicates the presence of metabolically active cells.
(§2) DLD-1 BRCA2(−/−) and parental isogenic pair were cultured in RPMI 1640 supplemented with 10% fetal bovine serum (FBS), and MDA-MB-436 cells were cultured in DMEM supplemented with 10% FBS. Both are culture at 37° C. with 5% CO2. Invention compounds were distributed to the 384 well plate (Corning, 3764) using Echo acoustic liquid handler to form a 1:3 serially diluted final concentration with top dose of 10 or 30 μM. The cells were seeded into the plate in the density of 50 cells/well (DLD-1 parental), 200 cells/well (DLD-1 BRCA2−/−), or 500 cells/well (MDA-MB-436). After a short spun, the cells were cultured in a well moisturized incubator at 37° C. with 5% CO2 for 7 days without disturbance. The cell viability was measured by CellTiter Glo 2.0 assay kit (Promega, G9243), and growth inhibition rate was calculated and plotted against final compound concentration, and the data were fitted in Xfit to generate IC50.
In general terms: ATP-based viability assays read luminescence as a measure of living cells.

Experiment [1] deals with MDA-MB-436 (mutated BRCA1) cells. The description is as above. Format: cell-based. The conditions noted are these: Homo sapiens, 168 h, MDA-MB-436, 7 days.
Description: as §1, §2

A further experiment concerns the target PARP1 (Homo sapiens (Human), UniProt P09874). The experiment in a line: Biochemical fluorescent polarization (FP) assay, displacement of PARPi-FL. The class given is binding. The conditions noted are these: 20 nM protein, 3 nM PARPi-FL, 4 h at room temperature. As for the experimental part:
(§3) The assay was performed utilizing the following method:
(§4) 100% DMSO was used for the high (with protein) and low (without protein) control samples. 20 nL of compound or DMSO alone was added to individual assay plate wells.
(§5) PARP1 and PARP2 protein were expressed, purified, and diluted in assay buffer containing 50 mM Tris pH 8.0, 0.001% Triton X-100, 10 mM MgCl2, 150 mM NaCl to a final concentration of 20 nM. The PARPi-FL was then added at a final concentration of 3 nM.
(§6) The assay plate is centrifuged at 1000 rpm for 1 min and incubated for 4 h at room temperature.
(§7) The fluorescent polarization is read using an Envision plate reader using the following settings: […]

The next experiment has as its target PARP2 (Homo sapiens (Human), UniProt Q9UGN5). The description is as above. Format: binding. The conditions noted are these: 20 nM protein, 3 nM PARPi-FL, 4 h at room temperature; read-out: IC50 FP PARP2. Here is the method: as §3, §4, §5, §6, §7

In patent US11802128B2, “Azetidine and pyrrolidine PARP1 inhibitors and uses thereof” (Xinthera, Inc., priority 2021, dated 2023) one finds EC50 and IC50 data, which are given here for 24 compounds.

Usually EC50 stands for the concentration at which the effect is half-maximal. High values mean weaker potency, low ones greater potency. Usually IC50 stands for the concentration at which inhibition is half-maximal.

Chain of PARP1 (P09874 whole entry): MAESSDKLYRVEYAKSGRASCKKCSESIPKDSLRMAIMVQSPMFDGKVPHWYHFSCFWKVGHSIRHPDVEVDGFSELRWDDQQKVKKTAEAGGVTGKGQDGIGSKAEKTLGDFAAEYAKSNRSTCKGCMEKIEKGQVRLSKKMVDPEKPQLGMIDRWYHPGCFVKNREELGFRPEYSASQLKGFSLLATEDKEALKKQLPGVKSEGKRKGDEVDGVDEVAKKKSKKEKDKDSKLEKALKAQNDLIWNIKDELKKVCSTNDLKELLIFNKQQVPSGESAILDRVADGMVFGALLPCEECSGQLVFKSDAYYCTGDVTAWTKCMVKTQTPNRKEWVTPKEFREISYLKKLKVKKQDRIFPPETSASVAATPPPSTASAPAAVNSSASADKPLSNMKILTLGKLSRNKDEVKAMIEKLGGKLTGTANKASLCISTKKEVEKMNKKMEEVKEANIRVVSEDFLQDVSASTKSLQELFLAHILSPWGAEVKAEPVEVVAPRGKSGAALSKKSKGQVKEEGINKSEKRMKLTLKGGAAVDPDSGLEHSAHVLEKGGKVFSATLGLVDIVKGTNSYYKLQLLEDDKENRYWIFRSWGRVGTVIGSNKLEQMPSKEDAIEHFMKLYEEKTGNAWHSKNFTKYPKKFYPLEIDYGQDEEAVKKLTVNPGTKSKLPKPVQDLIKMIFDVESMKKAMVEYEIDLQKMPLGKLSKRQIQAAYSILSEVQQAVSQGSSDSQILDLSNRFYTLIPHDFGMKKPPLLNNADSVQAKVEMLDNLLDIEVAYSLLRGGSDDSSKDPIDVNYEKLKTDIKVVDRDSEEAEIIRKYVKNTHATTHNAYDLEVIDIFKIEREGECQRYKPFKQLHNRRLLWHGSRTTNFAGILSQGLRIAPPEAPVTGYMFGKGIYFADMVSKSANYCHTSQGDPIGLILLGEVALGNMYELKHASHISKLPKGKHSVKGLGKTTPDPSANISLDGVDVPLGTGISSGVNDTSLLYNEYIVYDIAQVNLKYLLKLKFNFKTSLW
Chain of PARP2 (Q9UGN5 whole entry): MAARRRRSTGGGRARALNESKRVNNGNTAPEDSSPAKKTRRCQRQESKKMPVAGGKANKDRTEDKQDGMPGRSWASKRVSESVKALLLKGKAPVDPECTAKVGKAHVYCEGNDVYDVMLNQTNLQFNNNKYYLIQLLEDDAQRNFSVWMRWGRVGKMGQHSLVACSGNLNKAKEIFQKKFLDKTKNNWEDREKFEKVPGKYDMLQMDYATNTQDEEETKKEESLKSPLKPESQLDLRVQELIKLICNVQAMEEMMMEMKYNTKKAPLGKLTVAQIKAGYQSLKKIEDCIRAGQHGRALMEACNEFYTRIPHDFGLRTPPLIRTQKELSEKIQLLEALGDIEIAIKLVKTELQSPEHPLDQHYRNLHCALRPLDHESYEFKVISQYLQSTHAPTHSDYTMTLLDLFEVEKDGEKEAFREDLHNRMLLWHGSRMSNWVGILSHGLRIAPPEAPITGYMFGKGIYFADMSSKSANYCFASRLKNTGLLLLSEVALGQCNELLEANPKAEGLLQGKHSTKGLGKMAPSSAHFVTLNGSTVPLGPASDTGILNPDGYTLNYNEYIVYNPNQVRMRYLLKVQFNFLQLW

As for `CCc1cc2ncc([C@@H](C)N3C[C@H](Oc4ccc(C(=O)NC)nc4)[C@H]3C)cc2[nH]c1=O` (single isomer, unassigned) [Example 54, 5-{[(2R,3S)-1-[(1R*)-1-(7-ethyl-6-oxo-5H-1,5-naphthyridin-3-yl)ethyl]-2-methylazetidin-3-yl]oxy}-N-methylpyridine-2-carboxamide], the EC50 with DLD-1 BRCA2(−/−) cells was 1.2 nM; in experiment [1], 0.62 nM. The figures for the concentration for half-maximal inhibition (IC50) at PARP1 and on PARP2 were 4.5 nM and 900 nM, respectively.

Regarding `CCc1cc2ncc([C@H](C)N3C[C@H](Oc4ccc(C(=O)NC)nc4)[C@H]3C)cc2[nH]c1=O` (single isomer, unassigned) [Example 55, 5-{[(2R,3S)-1-[(1R*)-1-(7-ethyl-6-oxo-5H-1,5-naphthyridin-3-yl)ethyl]-2-methylazetidin-3-yl]oxy}-N-methylpyridine-2-carboxamide], the results for the concentration for a half-maximal effect (EC50) (with DLD-1 BRCA2(−/−) cells; in experiment [1]) were 38 nM and 12 nM, respectively. Further, the values for the IC50 on PARP1 and on PARP2 were 6.4 nM and more than 100000 nM, respectively.

`Cc1cc2ncc([C@@H](C)N3C[C@H](Oc4ccc(C#N)nc4)[C@H]3C)cc2[nH]c1=O` (single isomer, unassigned) [Example 60]: the EC50 (in the experiment on DLD-1 BRCA2(−/−) cells; in experiment [1]) was more than 1000 nM each time. Further, the half-maximal inhibitory concentration (IC50) is more than 100 nM on PARP1 and more than 100000 nM at PARP2.

`Cc1cc2ncc([C@H](C)N3C[C@H](Oc4ccc(C#N)nc4)[C@H]3C)cc2[nH]c1=O` (single isomer, unassigned) [Example 61]: the EC50 in the experiment with DLD-1 BRCA2(−/−) cells was determined as 10 nM; in experiment [1] it was 8.8 nM. The half-inhibitory concentration (IC50) on PARP1 amounted to 18 nM; at PARP2 it was 23000 nM.

As for `Cc1cc2ncc(CN3C[C@H](Oc4ccc(C(=O)N[C@H]5CC5(F)F)nc4)[C@H]3C)cc2[nH]c1=O` (single isomer, unassigned) [Example 89], the concentration giving a half-maximal response (EC50) stood at 1.8 nM with DLD-1 BRCA2(−/−) cells and 1.1 nM in experiment [1]. In addition, the figures for the IC50 on PARP1 and on PARP2 were 7.2 nM and 9600 nM, respectively.

As to `Cc1cc2ncc(CN3C[C@H](Oc4ccc(C(=O)N[C@@H]5CC5(F)F)nc4)[C@H]3C)cc2[nH]c1=O` (single isomer, unassigned) [Example 90], the concentration giving a half-maximal response (EC50) is 2.8 nM in the experiment with DLD-1 BRCA2(−/−) cells and 1.8 nM in experiment [1]. In addition, the concentration for half-maximal inhibition (IC50) at PARP1 came to 8.5 nM; at PARP2, 3100 nM.

Take `Cc1cc2ncc(CN3CCC(Oc4ccc(C(=O)NCC(F)F)nc4)C3)cc2[nH]c1=O` (stereo in doubt) [Example 10, N-(2,2-difluoroethyl)-5-{[(3R)-1-[(7-methyl-6-oxo-5H-1,5-naphthyridin-3-yl)methyl]pyrrolidin-3-yl]oxy}pyridine-2-carboxamide]: the EC50 in the experiment with DLD-1 BRCA2(−/−) cells amounted to 8.8 nM; in experiment [1] it was 6.8 nM. Also, the IC50 at PARP1 was 6.8 nM; at PARP2, more than 100000 nM.

Turning to `CNC(=O)c1ccc(O[C@@H]2CCN(Cc3cnc4cc(C5CC5)c(=O)[nH]c4c3)C2)cn1` [Example 3, 5-{[(3R)-1-[(7-cyclopropyl-6-oxo-5H-1,5-naphthyridin-3-yl)methyl]pyrrolidin-3-yl]oxy}-N-methylpyridine-2-carboxamide], the EC50 in the experiment on DLD-1 BRCA2(−/−) cells stood at 13 nM; in experiment [1], 4.5 nM. Also, the 50% inhibitory concentration (IC50) was 6.4 nM on PARP1 and more than 100000 nM at PARP2.

Turning to `C[C@@H]1[C@@H](Oc2ccc(C(=O)NC3CC3)nc2F)CN1Cc1cnc2cc(Cl)c(=O)[nH]c2c1` [Example 105], the 50% effective concentration (EC50) in the experiment on DLD-1 BRCA2(−/−) cells is 2.2 nM; in experiment [1] it was 0.93 nM.

On to `CNC(=O)c1ccc(O[C@H]2CN(Cc3ccc4cc(Cl)c(=O)[nH]c4c3F)[C@@H]2C)cn1` [Example 106, 5-{[(2R,3S)-1-[(3-chloro-8-fluoro-2-oxo-1H-quinolin-7-yl)methyl]-2-methylazetidin-3-yl]oxy}-N-methylpyridine-2-carboxamide], for which the figures for the EC50 (with DLD-1 BRCA2(−/−) cells; in experiment [1]) were 8.3 nM and 5 nM, respectively.

For the compound `CCc1nc2c(F)cc(CN3C[C@H](Oc4ccc(C(=O)NC)nc4)[C@H]3C)c(F)c2[nH]c1=O` [Example 107], the EC50 in the experiment on DLD-1 BRCA2(−/−) cells came out at 30 nM; in experiment [1], 17 nM.

In the case of `CCc1cc2c(F)cc(CN3C[C@H](Oc4ccc(C(=O)NC)nc4)[C@H]3C)c(F)c2[nH]c1=O` [Example 108], the half-maximal effective concentration (EC50) (in the experiment on DLD-1 BRCA2(−/−) cells; in experiment [1]) was 12 nM each time.

As to `[2H]C([2H])([2H])NC(=O)c1ccc(O[C@H]2CN(Cc3ccc4nc(CC)c(=O)[nH]c4c3F)[C@@H]2C)c(F)n1` [Example 110, 5-{[(2R,3S)-1-[(2-ethyl-5-fluoro-3-oxo-4H-quinoxalin-6-yl)methyl]-2-methylazetidin-3-yl]oxy}-6-fluoro-N-methyl-d3 pyridine-2-carboxamide], the EC50 in the experiment on DLD-1 BRCA2(−/−) cells was 14 nM; in experiment [1], 9.4 nM.

Consider `[2H]C([2H])(c1ccc2nc(CC)c(=O)[nH]c2c1F)N1C[C@H](Oc2ccc(C(=O)NC)nc2F)[C@H]1C` [Example 111], for which the EC50 with DLD-1 BRCA2(−/−) cells turned out to be 15 nM; in experiment [1], 13 nM.

Take `[2H]C([2H])(c1ccc2nc(CC)c(=O)[nH]c2c1F)N1C[C@H](Oc2ccc(C(=O)NC3CC3)nc2F)[C@H]1C` [Example 112]: the EC50 in the experiment with DLD-1 BRCA2(−/−) cells stood at 4.7 nM; in experiment [1], 2.6 nM.

`CNC(=O)c1ccc(O[C@H]2CN(Cc3ccc4c([nH]c(=O)c5ccnn54)c3F)[C@@H]2C)cn1` [Example 113, 5-{[(2R,3S)-1-({6-fluoro-4-oxo-5H-pyrazolo[1,5-a]quinoxalin-7-yl}methyl)-2-methylazetidin-3-yl]oxy}-N-methylpyridine-2-carboxamide]: the half-maximal effective concentration (EC50) came to 16 nM in the experiment with DLD-1 BRCA2(−/−) cells and 8.7 nM in experiment [1].

`Cc1cc2c(=O)[nH]c3c(F)c(CN4C[C@H](Oc5ccc(C(=O)NC6CC6)nc5)[C@H]4C)ccc3n2n1` [Example 114]: the EC50 in the experiment on DLD-1 BRCA2(−/−) cells was determined as 5.9 nM; in experiment [1] it was 3.6 nM.

As for `CNC(=O)c1ccc(O[C@H]2CN(Cc3ccc4c5c(c(=O)[nH]c4c3F)CCO5)[C@@H]2C)cn1` [Example 115, 5-{[(2R,3S)-1-({6-fluoro-4-oxo-2H,3H,5H-furo[3,2-c]quinolin-7-yl}methyl)-2-methylazetidin-3-yl]oxy}-N-methylpyridine-2-carboxamide], the 50% effective concentration (EC50) (in the experiment on DLD-1 BRCA2(−/−) cells; in experiment [1]) was 170 nM throughout.

In the case of `C[C@@H]1[C@@H](Oc2ccc(C(=O)NC3CC3)nc2)CN1Cc1ccc2c3c(c(=O)[nH]c2c1F)CCO3` [Example 116], the EC50 was found to be 13 nM in the experiment on DLD-1 BRCA2(−/−) cells and 3.3 nM in experiment [1].

In the case of `CCc1nc2ccc(CN3CC(Oc4ccc(C(=O)NC5CC5)nc4)C3)c(F)c2[nH]c1=O` [Example 117], the concentration for a half-maximal effect (EC50) (in the experiment on DLD-1 BRCA2(−/−) cells; in experiment [1]) was 13 nM each time.

In the case of `CCc1cc2ccc(CN3CC(Oc4ccc(C(=O)NC5CC5)nc4)C3)c(F)c2[nH]c1=O` [Example 118], the concentration giving a half-maximal response (EC50) in the experiment on DLD-1 BRCA2(−/−) cells was determined as 24 nM; in experiment [1], 22 nM.

For `C[C@@H]1[C@@H](Oc2ccc(C(=O)NCC(F)F)nc2)CN1Cc1ccc2c([nH]c(=O)c3ccnn32)c1F` [Example 119], the concentration giving a half-maximal response (EC50) in the experiment on DLD-1 BRCA2(−/−) cells is 6.8 nM; in experiment [1], 4.4 nM.

Regarding `C[C@@H]1[C@@H](Oc2ccc(C(=O)NCC(F)F)nc2)CN1Cc1ccc2c3c(c(=O)[nH]c2c1F)CCO3` [Example 120], the EC50 came out at 21 nM with DLD-1 BRCA2(−/−) cells and 8.7 nM in experiment [1].

Turning to `CNC(=O)c1ccc(O[C@H]2CN(Cc3ccc4c([nH]c(=O)c5c(F)cnn54)c3F)[C@@H]2C)cn1` [Example 121, 5-{[(2R,3S)-1-({3,6-difluoro-4-oxo-5H-pyrazolo[1,5-a]quinoxalin-7-yl}methyl)-2-methylazetidin-3-yl]oxy}-N-methylpyridine-2-carboxamide], the values for the half-maximal effective concentration (EC50) (in the experiment on DLD-1 BRCA2(−/−) cells; in experiment [1]) were 1.2 nM and 1.8 nM, respectively.
